Columns and labels:
[1] = Phase 1 single/multiple ascending dose and food effect trial in healthy volunteers: pharmacokinetics (plasma, urine); format: in vivo, human
Source text: This is a three-part clinical trial to evaluate the safety, tolerability, PK, and food effect of Compound 1 in healthy volunteers aged 18 to 55 years inclusive. The clinical trial is comprised of the following 3 parts: • Part A is randomized, double-blinded and placebo-controlled. Part A is designed to investigate the safety and PK of single ascending doses of Compound 1. • Part B is randomized, double-blinded and placebo-controlled. Part B is designed to investigate the safety and PK of multiple ascending doses of Compound 1 (selected based on the results from Part A). • Part C is a randomized, open-label, crossover design to investigate the PK of a single dose of Compound 1 in the fasted and fed state. Objectives and Endpoints: Part A
(§1) Part C may commence once the safety and PK have been adequately evaluated in the last cohort of Part A. Up to 16 participants receive two doses of Compound 1, one dose after a minimum of 10 hours fasting and one after consumption of a high-fat, high calorie meal in a randomized crossover design, with a 7 day washout in between periods. Up to 3 additional days of washout may be added between fasted and fed dosing based on the observed half-life in Part A.
A validated bioanalytical method is utilized for the determination of plasma and urine concentrations of Compound 1. Plasma and urine concentrations are summarized by dose group/condition and timepoint using descriptive statistics. In addition to descriptive statistics specified in General Conditions above, plasma concentrations are also summarized using number and percentage of concentrations below the level of quantification (BLQ) and coefficient of variation (CV %).
Pharmacokinetic parameters are estimated from concentration-time data using standard non-compartmental methods. Urine PK parameters are estimated from urine concentration and urine volume data. PK parameters are summarized by dose group/condition using descriptive statistics. In addition to descriptive statistics specified in General Conditions above, PK parameters are summarized using CV %, geometric mean, and geometric coefficient of variation. PK parameters are assessed for linearity and dose proportionality using the power model where feasible. To test for a food effect in Part C, the geometric mean ratio (In transformed) of the test treatment (ie, fed condition) relative to the reference treatment (ie, fasted condition) are estimated with the 90% CIs calculated for Cmax and AUC0-inf. […]
as §1, with “Participants” for “Up to 16 participants”, “Up to 3 additional days of washout may be added between fasted and fed dosing based on the observed half-life in Part A.” left out

[2] = Phase 1 single/multiple ascending dose and food effect trial in healthy volunteers: safety and tolerability; format: in vivo, human
Source text: This is a three-part clinical trial to evaluate the safety, tolerability, PK, and food effect of Compound 1 in healthy volunteers aged 18 to 55 years inclusive. The clinical trial is comprised of the following 3 parts: • Part A is randomized, double-blinded and placebo-controlled. Part A is designed to investigate the safety and PK of single ascending doses of Compound 1. • Part B is randomized, double-blinded and placebo-controlled. […]
Dosing in each dose level cohort starts with 2 sentinel participants with one of the 2 participants randomized to receive Compound 1 and the other participant randomized to receive placebo. The safety and tolerability of each sentinel participant are monitored until Day 6 and reviewed prior to dosing the remainder of participants in each cohort. […]
(§2) A dose level is evaluated in Part B if determined to be safe and tolerable in Part A. It is anticipated that 3 dose levels are evaluated in Part B in a total of 3 cohorts (Cohorts B1-B3). […]
as §2

[3] = XRPD, NMR and LC-MS of Compound 1 before and after jet milling; format: physicochemical
Protocol: X-ray powder diffraction (XRPD) data were collected using a Bruker D8 Advance powder diffractometer. The samples were irradiated with copper K-alpha X-rays (λ=1.54179 Å) with the generator operating at 40 kV/40 mA. The samples were scanned in continuous mode from 3° to 40° (2 θ) with a sample rotation speed of 15 rpm and a scanning rate of 10°/min.
Proton NMR (^1H-NMR), Florine NMR (^19F-NMR) and LC-MS analyses were also carried out on Compound 1 before jet milling and after jet milling.

## CCOC(F)(F)c1nnc2cnc(-c3cnc(OCC(F)(F)F)c(F)c3)cn12 [Compound 1, 3-(ethoxydifluoromethyl)-6-(5-fluoro-6-(2,2,2-trifluoroethoxy)pyridin-3-yl)-[1,2,4]triazolo[4,3-a]pyrazine]
[1]; healthy volunteers, oral capsules, fasted, preliminary data
  time to maximal concentrations: 2 to 3 h
[1]; healthy volunteers, preliminary data
  exposure versus dose level: increase proportionate to dose level
[1]; human, plasma, oral, average across groups, healthy volunteers, preliminary data, read-out: Terminal elimination half-life (converted)
  half-life: 114 h
[1]; once daily dosing
  time to 90% of steady-state: approximately 2 weeks
[2]; Part A single ascending doses, first four of six planned cohorts, preliminary analysis
  tolerability: well tolerated
[2]; Part A, first three cohorts tested
  Serious Adverse Events, severe Adverse Events, or Adverse Events leading to study withdrawal or discontinuation: no reported
[3]; after jet-milling
  physical form change (XRPD): no physical form change
[3]; due to jet milling
  chemical or structural change (NMR, LC-MS): no observed chemical or structural change

Reference: US12552797B2, “Process for making (3-[cyclopropylethoxy(difluoro)methyl]-6-6[5-fluoro-6-(2,2,2-trifluoroethoxy-3-pyridyl]- [1,2,4]triazolo[4,3-a]pyrazine” (Praxis Precision Medicines, Inc., priority 2019, dated 2026)
